The record followed here is US8278352B2, “Pesticide compositions and methods” (Commonwealth Scientific & Industrial Research Organisation, priority 2004, dated 2012).

“Also recorded” adds a separate entry of the source. Structures can show the parent of a compound that is named as a salt.

Series [1] in a line: 4 tonne outloading trial: fumigant concentration next day. The note with it: 160 g/t, tray of wheat, overnight, 20° C. Here is the method:
During outloading, wheat was treated/fumigated with a 95:5 (w:w) ratio of ethyl formate+methyl isothiocyanate at a rate of 160 g/t. The treated wheat was then transferred by auger into a 4 tonne truck tray and then covered and held overnight (see FIG. 10).

Series [2] in a line: Stability of ethyl formate and methyl isothiocyanate formulation stored at 25° C. The format is physicochemical. The note with it: for stability when formulated and stored: 25° C., 2 months; for percent of the original fumigant present (M/Mo): formulation stored at 25° C. Here is the method:
The stability of ethyl formate and methyl isothiocyanate as a fumigant formulation stored at 25° C. was assessed for a period of 1 day, 1 month and 2 months. […] This is also graphically represented in FIG. 1.

In series [3] the test system is mixed aged cultures (egg, larvae and pupae) of S. oryzae. The series can be described thus: Emerging adult study on mixed aged cultures of S. oryzae. To be noted: Sitophilus oryzae, 25° C., 6 hours fumigation, read-out: emerging adult population, % of control. The format is in vivo. Here is the method: Table 3 compares the toxicity of ethyl formate alone and ethyl formate+methyl isothiocyanate to mixed aged cultures (egg, larvae and pupae) of S. oryzae at 25° C. after 6 hours fumigation at two concentrations.

For series [4], the system named is adults of Sitophilus oryzae. The experiment in a line: Toxicity study on adults of Sitophilus oryzae (fumigation, mortality). In kind it is in vivo. To be noted: 25° C., 24 hours fumigation. Here is the method:
The insect species studied were laboratory strains of the rice weevil Sitophilus oryzae present as the egg, larvae, pupae or adult and mixed aged cultures thereof in bulk stores of wheat.
Toxicity studies of ethyl formate alone compared with ethyl formate and […] were conducted on adults of the rice weevil Sitophilus oryzae at 25° C. and 24 hours fumigation.

Series [5] relates to pupae of S. oryzae. The experiment in a line: Emerging adult study on pupae of S. oryzae. The format is in vivo, Sitophilus oryzae. The note with it: 25° C. Here is the method: Table 4 compares the toxicity of ethyl formate alone and ethyl formate+methyl isothiocyanate to pupae of S. oryzae at 25° C. after 6 hours fumigation at two concentrations.
Table 5 compares the toxicity of ethyl formate alone and ethyl formate+methyl isothiocyanate to pupae of S. oryzae at 25° C. after 24 hours fumigation at two concentrations.

As for `CCOC=O` [EtF, ethyl formate], in series [1], the “concentration of fumigant component on the next day” value is listed as “below TLV”. Besides, the “stability when formulated and stored” value in series [2] was “stable”. The “percent of the original fumigant present (M/Mo)” value in series [2] (1 Day) stood at 100%; in series [2] (1 Month), 102%; in series [2] (2 Months), 98.5%. The activity at 67.4 µg/mL in series [3] (67.4 mg/L) worked out at 27%. Also, in series [3] (101.1 mg/L), the activity at 101.1 µg/mL was determined as 5%. Also, the mortality result in series [4] (5.9 mg/L) was “inactive; also recorded: unaffected”. The mortality at 5.9 µg/mL in series [4] (Sitophilus oryzae, 5.9 mg/L) is 0%. The compound further registered a mortality at 11.8 µg/mL in series [4] (Sitophilus oryzae, 11.8 mg/L) of 48%. Moreover, the emerging adult % in series [5] (34.8 mg/L, 24 hours fumigation) was 19%; in series [5] (67.4 mg/L, 6 hours fumigation), 24%; in series [5] (67.4 mg/L, 24 hours fumigation) it was 9%; in series [5] (101.1 mg/L, 6 hours fumigation) it was 12%.
Consider `CN=C=S` [MITC, methyl isothiocyanate], for which the “concentration of fumigant component on the next day” value in series [1] is on record as “below TLV”. For the same compound, the “stability when formulated and stored” value in series [2] is “stable”. Further, the “percent of the original fumigant present (M/Mo)” value in series [2] (1 Day) was 100%; in series [2] (1 Month), 98%; in series [2] (2 Months) it was 101.5%.
